# Results reported in patent US8785481B2, “Ether benzotriazole derivatives” (Merck Sharp & Dohme Corp., priority 2010, dated 2014).
# Biological target: T1, recombinant human mGluR2 (Homo sapiens, UniProt Q14416)
# T1 construct: expressed in transfected cells
# Assay: FLIPR Ca2+ mobilization assay, potentiation of glutamate (EC20) response
# Type: cell-based
# Details: CHO dhfr- cells expressing human mGluR2 and Gα16, EC20 glutamate (900 nM)
# Description: Potencies are determined as follows. The compounds of the present invention may be tested in a fluorescence laser imaging plate reader (FLIPR) based assay. This assay is a common functional assay to monitor Ca^2+ mobilization in whole cells expressing recombinant receptor coupled with a promiscuous G-protein. CHO dhfr- cells stably expressing recombinant human mGluR2 and Gα16 loaded with Fluo-4 AM (Invitrogen, Carlsbad Calif.) are treated with varying concentrations of compounds and the Ca^2+ response is monitored on a FLIPR384 (Molecular Devices, Sunnydale Calif.) for agonist activity. The potentiation response is monitored after a subsequent addition of an EC20 concentration of glutamate (900 nM). The maximum calcium response at each concentration of compound for agonism or potentiation are plotted as dose responses curves fitted with a four parameters logistic equation giving EC50 and Hill coefficient using the iterative non linear curve fitting software program.
# T1 sequence (Q14416 19-872): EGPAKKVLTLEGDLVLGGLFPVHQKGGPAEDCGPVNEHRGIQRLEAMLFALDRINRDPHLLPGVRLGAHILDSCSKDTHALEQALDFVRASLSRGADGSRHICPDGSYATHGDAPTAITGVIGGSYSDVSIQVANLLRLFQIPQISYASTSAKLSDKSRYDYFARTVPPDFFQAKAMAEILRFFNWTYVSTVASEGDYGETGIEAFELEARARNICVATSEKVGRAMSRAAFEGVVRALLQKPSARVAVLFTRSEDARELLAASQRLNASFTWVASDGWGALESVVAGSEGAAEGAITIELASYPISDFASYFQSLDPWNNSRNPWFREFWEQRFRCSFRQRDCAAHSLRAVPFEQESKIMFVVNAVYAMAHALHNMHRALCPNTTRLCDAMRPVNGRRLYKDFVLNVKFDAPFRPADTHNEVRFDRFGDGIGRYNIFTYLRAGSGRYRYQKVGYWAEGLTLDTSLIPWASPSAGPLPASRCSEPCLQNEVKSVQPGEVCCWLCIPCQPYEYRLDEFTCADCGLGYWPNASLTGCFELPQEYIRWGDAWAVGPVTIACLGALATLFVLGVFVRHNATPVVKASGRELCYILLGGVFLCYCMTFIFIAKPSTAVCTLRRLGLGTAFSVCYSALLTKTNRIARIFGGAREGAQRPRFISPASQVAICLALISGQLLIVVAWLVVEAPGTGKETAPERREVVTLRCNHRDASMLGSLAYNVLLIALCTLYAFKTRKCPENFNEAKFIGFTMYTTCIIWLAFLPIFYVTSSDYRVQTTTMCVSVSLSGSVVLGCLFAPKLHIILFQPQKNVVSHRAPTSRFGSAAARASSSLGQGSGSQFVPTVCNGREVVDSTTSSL
row,Structure (SMILES),EC50 [µM]
1,"CC(C)(C)C(O)COc1ccc2c(nnn2CC2CC2)c1Br (racemic) [Example 8-1, (±)-1-{[4-Bromo-1-(cyclopropylmethyl)-1H-benzotriazol-5-yl]oxy}-3,3-dimethylbutan-2-ol]",0.072
2,"COc1ccc2c(nnn2CC2CCCC2)c1Br [Example 1-3, 4-bromo-1-(cyclopentylmethyl)-5-methoxy-1H-benzotriazole]",0.093
3,"CCOc1ccc2c(nnn2CC(C)(C)C)c1Br [Example 1-4, 4-bromo-1-(2,2-dimethylpropyl)-5-ethoxy-1H-benzotriazole]",0.032
4,"COc1ccc2c(nnn2CCCC(F)(F)F)c1Br [Example 1-11, 4-bromo-5-methoxy-1-(4,4,4-trifluorobutyl)-1H-benzotriazole]",0.051
5,"CC(C)[C@@H](C)n1nnc2c(Br)c(O)c(Br)cc21 [Example 2-4, 4,6-dibromo-1-[(1R)-1,2-dimethylpropyl]-1H-benzotriazol-5-ol]",0.373
6,"CC(C)(C)Cn1nnc2c(Br)c(OCc3cccc(-c4ccc(O)c(C(=O)O)c4)c3)ccc21 [Example 3-3, 3′-({[4-bromo-1-(2,2-dimethylpropyl)-1H-benzotriazol-5-yl]oxy}methyl)-4-hydroxy-biphenyl-3-carboxylic acid]",0.0035
7,"CC(Oc1ccc2c(nnn2CC(C)(C)C)c1Br)c1ccccc1 (centres unmarked) [Example 3-15, 4-bromo-1-(2,2-dimethylpropyl)-5-(1-phenylethoxy)-1H-benzotriazole]",0.091
8,"Cc1cnc(C#N)c(-c2cccc(COc3ccc4c(nnn4CC(C)(C)C)c3Br)c2)c1 [Example 3-26, 3-[3-({[4-bromo-1-(2,2-dimethylpropyl)-1H-benzotriazol-5-yl]oxy}methyl)phenyl]-5-methylpyridine-2-carbonitrile]",0.016
9,"CC(C)(C)Cn1nnc2c(Br)c(OCc3cccc(-c4c[nH]nc4C#N)c3)ccc21 [Example 3-34, 4-[3-({[4-bromo-1-(2,2-dimethylpropyl)-1H-benzotriazol-5-yl]oxy}methyl)phenyl]-1H-pyrazole-3-carbonitrile]",0.049
10,"CC(C)(C)Cn1nnc2c(Br)c(OCc3cccc4ccnn34)ccc21 [Example 4-5, 4-bromo-1-(2,2-dimethylpropyl)-5-(pyrazolo[1,5-a]pyridin-7-ylmethoxy)-1H-benzotriazole]",0.042
11,"CC(C)(C)Cn1nnc2c(Br)c(OCc3ncccn3)ccc21 [Example 4-7, 4-bromo-1-(2,2-dimethyl-propyl)-5-(pyrimidin-2-ylmethoxy)-1H-benzotriazole]",0.521
12,"CC(C)(C)Cn1nnc2c(Br)c(OCc3cccc(N4CCCCC4)n3)ccc21 [Example 4-27, 4-bromo-1-(2,2-dimethylpropyl)-5-[(6-piperidin-1-ylpyridin-2-yl)methoxy]-1H-benzotriazole]",0.288
13,"CC(C)(C)Cn1nnc2c(Br)c(OCc3ncccc3F)ccc21 [Example 4-42, 4-bromo-1-(2,2-dimethyl-propyl)-5-[(3-fluoropyridin-2-yl)methoxy]-1H-benzotriazole]",0.041
14,"CC(C)(C)Cn1nnc2c(Br)c(OCc3ccccc3Cl)ccc21 [Example 4-45, 4-bromo-5-[(2-chlorobenzyl)oxy]-1-(2,2-dimethylpropyl)-1H-benzotriazole]",0.065
15,"CC(C)(C)OC(=O)N1CCC(COc2ccc3c(nnn3CC3CC3)c2Cl)CC1 [Example 4-63, tert-butyl 4-({[4-chloro-1-(cyclopropylmethyl)-1H-benzotriazol-5-yl]oxy}methyl) piperidine-1-carboxylate]",0.034
16,"C[C@H](O)C(=O)N1CCC(COc2ccc3c(nnn3CC3CC3)c2Br)CC1 [Example 4-65, (2S)-1-[4-({[4-bromo-1-(cyclopropylmethyl)-1H-benzotriazol-5-yl]oxy}methyl)piperidin-1-yl]-1-oxopropan-2-ol]",0.188
17,"CC(C)(C)OC(=O)N1CCC(COc2ccc3c(nnn3CC3CC3)c2Br)C1 (centres unmarked) [Example 4-67, tert-butyl 3-({[4-bromo-1-(cyclopropylmethyl)-1H-benzotriazol-5-yl]oxy}methyl) pyrrolidine-1-carboxylate]",0.02
18,"CC1(COc2ccc3c(nnn3CC3CC3)c2C(F)(F)F)CCN(C(=O)CO)CC1 [Example 4-79, 2-[4-({[1-(cyclopropylmethyl)-4-(trifluoromethyl)-1H-benzotriazol-5-yl]oxy}methyl)-4-methyl-piperidin-1-yl]-2-oxoethanol]",0.007
19,"N#CCOc1ccc2c(nnn2CC2CC2)c1Br [Example 5-1, {[4-Bromo-1-(cyclopropylmethyl)-1H-benzotriazol-5-yl]oxy}acetonitrile]",0.281
20,"COc1cccc(COc2ccc3c(nnn3CC3CC3)c2Br)n1 [Example 6-1, 4-Bromo-1-(cyclopropylmethyl)-5-[(6-methoxypyridin-2-yl)methoxy]-1H-benzotriazole]",0.01
21,"CC(C)(C)C(=O)COc1ccc2c(nnn2CC2CC2)c1Br [Example 7-1, 1-{[4-Bromo-1-(cyclopropylmethyl)-1H-benzotriazol-5-yl]oxy}-3,3-dimethylbutan-2-one]",0.034

# Next, values leading:
row,EC50 [µM],Structure (SMILES)
1,0.084,"CC(C)(C)/C(COc1ccc2c(nnn2CC2CC2)c1Br)=N/O [Example 9-1, 1-{[4-Bromo-1-(cyclopropylmethyl)-1H-benzotriazol-5-yl]oxy}-N-hydroxy-3,3-dimethylbutan-2-imine]"
2,0.424,"FC(F)CN1CCC(Oc2ccc3c(nnn3CC3CC3)c2Br)CC1 [Example 10-47, 4-bromo-1-(cyclopropylmethyl)-5-{[1-(2,2-difluoroethyl)piperidin-4-yl]oxy}-1H-benzotriazole]"
3,0.15,"Brc1c(OCc2cscn2)ccc2c1nnn2CC1CC1 [Example 10-56, 4-bromo-1-(cyclopropylmethyl)-5-(1,3-thiazol-4-ylmethoxy)-1H-benzotriazole]"
4,0.415,"Brc1c(OCC2COCCO2)ccc2c1nnn2CC1CC1 (centres unmarked) [Example 10-73, 4-bromo-1-(cyclopropylmethyl)-5-(1,4-dioxan-2-ylmethoxy)-1H-benzotriazole]"
5,0.06,"C=CCOc1ccc2c(nnn2CC2CC2)c1Br [Example 10-120, 4-bromo-1-(cyclopropylmethyl)-5-(prop-2-en-1-yloxy)-1H-benzotriazole]"
6,0.039,"Brc1c(OCC2CCC2)ccc2c1nnn2CC1CC1 [Example 10-140, 4-bromo-5-(cyclobutylmethoxy)-1-(cyclopropylmethyl)-1H-benzotriazole]"
7,0.087,"O=C1CCC(Oc2ccc3c(nnn3CC3CC3)c2Br)CC12CC2 (centres unmarked) [Example 10-171, 7-{[4-bromo-1-(cyclopropyl-methyl)-1H-benzotriazol-5-yl]oxy}spiro[2.5]octan-4-one]"
8,0.222,"FC(F)(F)CN1CCN(CCOc2ccc3c(nnn3CC3CC3)c2Br)CC1 [Example 10-220, 4-bromo-1-(cyclopropylmethyl)-5-{2-[4-(2,2,2-trifluoroethyl)piperazin-1-yl]ethoxy}-1H-benzotriazole]"
9,0.53,"CCOc1ccc2c(nnn2CC2CC2)c1Br [Example 10-253, 4-bromo-1-(cyclopropylmethyl)-5-ethoxy-1H-benzotriazole]"
10,0.214,"Brc1c(OCCn2cccn2)ccc2c1nnn2CC1CC1 [Example 10-275, 4-bromo-1-(cyclopropylmethyl)-5-[2-(1H-pyrazol-1-yl)ethoxy]-1H-benzotriazole]"
11,0.009,"FC(F)(F)c1c(OCc2ccccc2)ccc2c1nnn2CC1CC1 [Example 11-1, 5-(Benzyloxy)-1-(cyclopropylmethyl)-4-(trifluoromethyl)-1H-benzotriazole]"
